Experimental data reported in patent US4402964A, “N-Aryl-N'-(3-methyl or ethyl-4-oxothiazolidinylidene)ureas useful for the treatment of epilepsy” (McNeilab, Inc., priority 1981, dated 1983).

Test system: tonic extensor seizure caused by applying an electric shock to mice via corneal electrodes
Assay: Maximal Electroshock (MES) test in mice (anticonvulsant activity)
Type: in vivo
Design: key to Mice MES test results (IA): IA: inactive
Conditions: for ED50: Mus musculus, po, read-out: ED50, Mice MES test results dose (50% of the animals show a block of tonic extensor convulsions)
Description: Activity in the MES test, indicating anticonvulsant activity, is characterized by a block of the tonic extensor seizure caused by applying an electric shock to mice via corneal electrodes as described in Swinyard et al., J. Pharmacol. Exp. Ther., 106, 319-330 (1952) and recorded as % block. A more recent description of current practice in anticonvulsant drug screening has also been reported by Swinyard et al., Epilepsia, 19, 409-428 (1978).
In said table, the ED50 result means that 50% of the animals show a block of tonic extensor convulsions in the MES test.

[1] = 10 mg/kg p.o., mice, only dose available

O=C1CSC(=NC(=O)Nc2ccccc2)N1 [Example X-888, reference compound]
Mice MES test results (activity in words) (200 mg/kg p.o.): not active
Mice MES test results (IA) (200 mg/kg p.o., mice): IA

Cc1cccc(C)c1NC(=O)N=C1SCC(=O)N1C [Example I, N-(2,6-dimethylphenyl)-N'-(3-methyl-4-oxo-2-thiazolidinylidene)urea]
ED50 (mice, p.o.): 9.96 mg/kg

CN1C(=O)CSC1=NC(=O)Nc1c(Cl)cccc1Cl [Example II, N-(2,6-dichlorophenyl)-N'-(3-methyl-4-oxo-2-thiazolidinylidene)urea]
ED50 (mice, p.o.): 28.3 mg/kg

CN1C(=O)CSC1=NC(=O)Nc1c(Br)cc(F)cc1Br [VI]
Mice MES test results (activity in words) (200 mg/kg p.o.): Active
% block (MES test) (200 mg/kg p.o., mice): 60%

Cc1cccc(NC(=O)N=C2SCC(=O)N2C)c1C [VIII]
ED50 (mice, p.o.): 128 mg/kg

CN1C(=O)CSC1=NC(=O)Nc1c(Br)cccc1Br [VII]
ED50 (mice, p.o.): 83.9 mg/kg

Cc1cccc(C)c1NC(=O)N=C1NC(=O)CS1 [McN-4241, reference compound]
ED50 (mice, p.o.): 242 mg/kg
ED50 range, Mice MES test results (mice, p.o., range printed in parentheses with the ED50): 196.5 to 296.9 mg/kg

COc1cccc(OC)c1NC(=O)N=C1SCC(=O)N1C [IX]
ED50 (mice, p.o.): 35.7 mg/kg

O=C1CSC(=NC(=O)Nc2c(Cl)cccc2Cl)N1 [McN-4242, reference compound]
Mice MES test results (IA) (200 mg/kg p.o., mice): IA

CN1C(=O)CSC1=NC(=O)Nc1c(F)cccc1F [Example X]
ED50 (mice, p.o.): 52.2 mg/kg

CCc1cccc(CC)c1NC(=O)N=C1SCC(=O)N1C [V]
ED50 (mice, p.o.): 17.5 mg/kg

Cc1cccc(Cl)c1NC(=O)N=C1SCC(=O)N1C [IV, N-(2-chloro-6-methylphenyl)-N'-(3-methyl-4-oxo-2-thiazolidinylidene)urea]
ED50 (mice, p.o.): 28.5 mg/kg

CCc1cccc(C)c1NC(=O)N=C1SCC(=O)N1C [III]
% block (MES test) [1]: 10%
Mice MES test results (activity in words) [1]: Active
